Measurements from patent US20180085356A1, “METHOD OF TREATING DISEASE CHARACTERISED BY PROTEIN AGGREGATE DEPOSITION IN NEURONAL CELLS” (CHRONOS THERAPEUTICS LIMITED, priority 2013, published 2018).

Assays:
S. cerevisiae = test: Chronological lifespan of ageing stationary phase yeast culture (outgrowth viability); assay type: cell-based, Saccharomyces cerevisiae; conditions: 40 μM tacrolimus
Description: Analysis of chronological lifespan in yeast involves assessment of the viability of a stationary phase culture over time. Yeast are stored in glycerol stocks at −80° C., inoculated into YPD (Yeast extract-Peptone-Dextrose) and incubated overnight. From this culture, a 1/25 dilution is prepared to produce an ageing culture that is incubated at 30° C. throughout the duration of the experiment. The first 24 hours of yeast growth are assessed in Complete Synthetic Media (CSM) to confirm that the culture has reached stationary phase. After 24 hours, when the culture has completed the exponential growth phase and has entered stationary phase, its viability can then be assessed. Viability is measured by taking a 5 μl sample of the ageing culture and diluting this into a total volume of 150 μlYPD. Growth of this “outgrowth culture” is measured using the Bioscreen-C MBR machine that both incubates the plates and measures optical turbidity every 20 minutes. Comparison of the viability curves of outgrowth cultures taken over several successive days can be used to observe the reduction in viability of the stationary phase culture over time. Specifically, the interval between the time taken for the outgrowth culture to reach OD600=0.6 on day 1, and the time taken to reach OD600=0.6 on a later day (for example day 7) can be used as a measure of the “ageing rate” of the culture. […]

[1] = test system: C. elegans expressing 35 polyglutamine tract fused to YFP (Q35) in the body wall muscle; test: C. elegans lifespan assay, polyglutamine Q35 strain; assay type: in vivo, Caenorhabditis elegans; conditions: p<0.05 vs. Q35 DMSO
Description: Tacrolimus was tested in a number of disease models using the nematode worm, Caenorhabditis elegans, in which aggregate-prone proteins associated with neurodegenerative diseases are expressed in certain cell types. The effect of tacrolimus was determined by measuring the lifespan of worms in the presence and absence of tacrolimus, using the following general methodology. All of the worms tested using these assays also contained, in addition to the transgene expressing the disease-related protein, a mutation in the bus-5 gene which confers drug-sensitivity.
C. elegans cultures were synchronised by incubating an asynchronous culture in basic sodium hypochlorite solution to kill everything but the bleach-resistant mature eggs. The eggs were added on to agar plates and then allowed to hatch and develop in the presence of the test compound (or vehicle) and bacterial food source. […] From this point on, each ageing population was inspected at regular intervals (e.g. daily) and viability assessed by counting the number of dead worms.
The cumulative number of dead worms for each population was used to generate a survival/viability plot to determine chronological lifespan (CLS). Survival was analysed using the Kaplan-Meier log-rank survival analysis method, using the Online Application for Survival (OASIS; see http://sbi.postech.ac.kr/oasis). […]

TDP-43 = test: Motor neuron culture with Aβ1-42 insult: extranuclear TDP-43 accumulation; assay type: cell-based, rat
Description: Primary motor neuron (MN) cultures generated from rat spinal cord were treated with 20 μM amyloid beta 1-42 peptide (Aβ1-42). […] This model was used to determine the effect of tacrolimus on TDP-43 toxicity in motor neurons. […] After permeabilisation with 0.1% saponin, one group of cells was incubated for 2 hours with a) mouse monoclonal anti-microtubule-associated-protein 2 (MAP-2) antibody, and b) rabbit polyclonal anti-TDP-43 antibody. The anti-MAP-2 antibody was used to determine MN survival (number of stained MN) and MN neurite length. The anti-TDP-43 antibody was used to examine extranuclear TDP-43: the area of extranuclear TDP-43 staining per MN was calculated by normalising to the number of MAP-2 positive cells.

rat microglia = test: Microglial cell culture model of inflammation (LPS challenge); assay type: cell-based; conditions: 100 ng/ml LPS overnight
Description: To investigate the effect of tacrolimus on microglial function, rat microglia were isolated as follows. A primary glial co-culture was isolated from P2 Sprague Dawley rat pups. The cells were cultured until confluency and then the microglia were isolated from the confluent glial cells through mechanical shaking. The isolated microglial cells were then subjected to inflammatory challenge by overnight exposure to 100 ng/ml lipopolysaccharide (LPS), in the presence or absence of tacrolimus. Glial cell activity was monitored by determining cell viability (Cell Counting Kit-8), the presence of reactive oxygen species (by quantitative fluorescence measurement in the supernatant/cell lysate), microvesicle shedding (by monitoring vesicle formation in cells loaded with Calcein-AM and then challenged with 1 mM ATP) and inflammatory cytokine production (by qPCR).

`C=CC[C@@H]1/C=C(\C)C[C@H](C)C[C@H](OC)[C@H]2O[C@@](O)(C(=O)C(=O)N3CCCC[C@H]3C(=O)O[C@H](/C(C)=C/[C@@H]3CC[C@@H](O)[C@H](OC)C3)[C@H](C)[C@@H](O)CC1=O)[C@H](C)C[C@@H]2OC` [tacrolimus, Tacrolimus] was tested, and the “rate of ageing / chronological lifespan of stationary phase yeast culture” value (S. cerevisiae) was “significantly delays the rate of ageing and extends the chronological lifespan”, the “interval between the x-intercepts at OD600=0.6 on days 1 and 9” value (S. cerevisiae; control without tacrolimus 287 minutes) was 63 min and the lifespan [1] was “significantly increases lifespan”. For the same compound, the “increase of TDP-43:MN ratio in response to Aβ1-42 insult relative to unchallenged cells” value (TDP-43; 100 nM tacrolimus, 24 hours, control cells increased by 191%) was 35%, the “TDP-43 levels normalised to motor neuron number (TDP-43:MN ratio)” value (TDP-43; all 3 concentrations, 24 hours after Aβ1-42 insult) was “significantly reduced TDP-43 levels” and the “LPS-induced oxidative stress (reactive oxygen species)” value (rat microglia; p<0.01 all concentrations, concentration-dependent) was “significantly reduced”. For the same compound, the “LPS-induced increase in metabolic activity of glial cells” value (rat microglia; p<0.01 for 100 nM and 1 μM) was “reduces this increase in a concentration-dependent manner” and the LPS-induced microvesicle shedding (rat microglia; p<0.01 for 1 μM, concentration-dependent) was “increase is reduced”.
